# Test results from patent US20220152226A1, “INTRACELLULAR DELIVERY AND MITOCHONDRIAL TARGETING BY FLUORINATION” (The Texas A&M University System, priority 2019, published 2022).
# Assays:
# [1] = system: isolated mitochondria (HeLa cells); assay: Competitive binding assay on isolated mitochondria (Rh123); parameters: species or system human; conditions: pre-incubation 37° C. 1 h, then Rh123 1 h
# Procedure: (§1) Mitochondria Isolation and Binding Affinity Study. The intracellular mitochondria were isolated by the commercial Mitochondria Isolation Kit for Cultured Cells (Thermo Fisher Scientific). Briefly, 2×10^7 HeLa cells were collected by trypsinization and centrifugation (850 g for 2 min). Then, the cells were lysed and the mitochondria were separated from other cell fragments by several washing and centrifugation steps as the manufacture's manual (Option A). The isolated mitochondria were freshly made for the binding affinity study.
# For the competitive binding assay, the isolated mitochondria were pre-incubated with triphenylphosphonium (TPP) or PEG2k-F7 at 37° C. for 1 h, and then washed with PBS for three times. The pretreated mitochondria were incubated with Rh123 at 37° C. for additional 1 h. After washing with PBS for three times, the mitochondria were analyzed by the microplate reader.
# HeLa cells = assay: Mitochondrial membrane potential measurement (JC-1 dye, flow cytometry); format: cell-based, human; conditions: 50 μM, 1 h, compared to untreated cells (FIG. 6B)
# Procedure: Mitochondrial Membrane Potential Measurement. The mitochondrial membrane potential was determined using the JC-1 dye by flow cytometry. Briefly, the HeLa cells were seeded at a density of 1×10^5 cells/well in 24-well plates for 24 h. The cells were incubated with the same molar concentration (50 μM) of the PEG2k-F7, TPP and CCCP (mitochondrial uncoupler) in the serum-free medium for 1 h. Then, the cells were washed three times by the iced-cold medium to remove the uninternalized materials. The cells were incubated with the JC-1 dye (Biotium) for 15 min at 37° C., followed by the flow cytometry.
# [2] = Body weight and white blood cell counts of treated 4T1 tumor mice; format: in vivo, BALB/c mice
# Procedure: Animal experiments. The subcutaneous (s.c.) syngeneic 4T1 tumor mouse model was established by s.c. implantation of 5×10^6 4T1 cells in the right rear flank of the BALB/c mice. The tumor was measured by a caliper.
# To study anticancer activity, the saline, VES, PEG2k-F7, VES-loaded PEG2k-PE micelles and VES-loaded PEG2k-F7 micelles were injected intravenously via the tail at a dose of 20 mg/kg every three days for 3 injections. The tumor size and mouse body weight were monitored every other day. The mice were sacrificed and the blood, major organs and tumors were collected. White blood cells were counted by using a hemocytometry by microscopy.
# [3] = system: isolated mitochondria (HeLa cells); assay: Binding affinity study with isolated mitochondria; parameters: species or system human; conditions: 37° C., 1 h, fluorescence
# Procedure: as §1
# The isolated mitochondria were incubated with the FITC-PEG2k, FITC-PE, FITC-F7, FITC-PEG2k-F7, Rh123, and MITOVIEW™ Green at 37° C. for 1 h, respectively. Then, the mitochondria were washed with PBS for three times and suspended in 200 μL PBS. The mitochondria suspension was observed on a Nikon Ti Eclipse fluorescence microscope. The fluorescence intensity was recorded on the microplate reader.
# mitochondria = assay: Quantification of mitochondria-accumulated dyes in living cells; format: cell-based
# Procedure: For quantification of the mitochondria-accumulated dyes in living cells, 2×10^7 cells were incubated with the FITC-PE, FITC-F7, or Rh123 at 37° C. for 1 h. After washing with PBS, the (total) cellular fluorescence intensity was measured by microplate reader. Then, the cells were lysed and the mitochondria were separated from other cell fragments by Mitochondria Isolation Kit for Cultured Cells (Option A). The fluorescence intensities of the isolated mitochondria and other cell fragments were measured by the microplate reader. To study the influence of mitochondrial membrane potential on mitochondrial targeting, the cells were pre-incubated with the uncoupler, CCCP (50 μM), for 15 min, and then incubated with the FITC-F7 or Rh123 for 1 h.
compound,measurement,setting,value
"c1ccc(P(c2ccccc2)c2ccccc2)cc1 [TPP, triphenylphosphonium]",decrease of Rh123 binding affinity by pre-incubation,[1],about 50%
same,effect on mitochondrial membrane potential,HeLa cells,dramatically depolarized mitochondria
"Cc1c(C)c2c(c(C)c1OC(=O)CCC(=O)O)CC[C@@](C)(CCC[C@H](C)CCC[C@H](C)CCCC(C)C)O2 [VES, d-Vitamin E succinate]",white blood cell (WBC) counts,[2]; FIG. 13,relatively similar to one another
same,body weight of mice,[2]; over 14 days (FIG. 10),stayed relatively the same
fluorescein isothiocyanate [FITC],binding affinity with isolated mitochondria,[3],did not significantly bind
rhodamine 123 [Rh123],effect of CCCP-induced membrane depolarization on mitochondrial accumulation,"mitochondria; CCCP 50 μM pre-incubation 15 min, then dye 1 h",substantially reduced
same,mitochondrial accumulation,"mitochondria; mitochondria isolated from treated cells, 37° C., 1 h",17.5%
